The target of this experiment is T1, human vasopressin V1b receptor (Homo sapiens, UniProt P47901).
T1 construct: expressed in transfected cells; host or cells: CHO-K1 (cell line hV1b_3H2_CHO), membrane preparation
T1 sequence (P47901 1-424): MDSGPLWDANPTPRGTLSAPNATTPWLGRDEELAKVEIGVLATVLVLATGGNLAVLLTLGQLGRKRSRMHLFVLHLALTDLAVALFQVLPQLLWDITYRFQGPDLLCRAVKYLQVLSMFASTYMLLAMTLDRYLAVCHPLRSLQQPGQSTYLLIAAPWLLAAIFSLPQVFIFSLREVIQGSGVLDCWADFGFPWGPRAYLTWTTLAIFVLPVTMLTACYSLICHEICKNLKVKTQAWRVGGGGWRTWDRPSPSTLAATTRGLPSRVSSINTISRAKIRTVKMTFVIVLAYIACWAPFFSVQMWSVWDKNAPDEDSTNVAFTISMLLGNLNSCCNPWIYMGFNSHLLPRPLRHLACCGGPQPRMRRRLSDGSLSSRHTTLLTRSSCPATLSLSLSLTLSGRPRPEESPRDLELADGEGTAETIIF
The experiment can be described thus: Vasopressin V1b receptor binding test. The settings on record: membranes of CHO-K1 cells with human V1b receptor, displacement of 1.5 nM 3H-AVP; for compounds with more than one stereogenic center the diastereomer with greater affinity. A digest of the protocol:
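Affinity constants (Ki) came from nonlinear regression of triplicate scintillation counts after filtration separated bound from free radioligand. Compounds competed at human V1b membranes for 60 min, room temperature, in pH 7.4 tris/MgCl2/BSA buffer with 2% DMSO; 1 μM AVP defined nonspecific binding.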

Usually Ki stands for a dissociation constant, usually derived from enzyme kinetics or from competition with a known ligand.

Molecule `COc1ccc(S(=O)(=O)N2C(=O)C(c3cc(CN4CCN(C)CC4)ccc3OC)(N3CCCC3c3nccs3)c3cc(Cl)ccc32)cc1` (stereo not shown) [Example 119, 5-Chloro-1-(4-methoxybenzenesulfonyl)-3-[2-methoxy-5-(4-methylpiperazin-1-ylmethyl)phenyl]-3-(2-thiazol-2-yl-pyrrolidin-1-yl)-1,3-dihydroindol-2-one] displayed a Ki of 10 to 100 nM.
Next, `CNCc1ccc(OC)c(C2(N3CCCC3c3ccccn3)C(=O)N(S(=O)(=O)c3ccc(OC)cc3)c3ccc(Cl)cc32)c1` (stereo not shown) [Example 120, 5-Chloro-1-(4-methoxybenzenesulfonyl)-3-(2-methoxy-5-methylaminomethylphenyl)-3-(2-pyridin-2-yl-pyrrolidin-1-yl)-1,3-dihydroindol-2-one]: 100 to 1000 nM; `COc1ccc(S(=O)(=O)N2C(=O)C(c3cc(CN4CCNCC4)ccc3OC)(N3CCCC3c3nccs3)c3cc(Cl)ccc32)cc1` (stereo not shown) [Example 121, 5-Chloro-1-(4-methoxybenzenesulfonyl)-3-(2-methoxy-5-(piperazin-1-ylmethyl)phenyl)-3-(2-thiazol-2-yl-pyrrolidin-1-yl)-1,3-dihydroindol-2-one]: 10 to 100 nM; `COc1ccc(S(=O)(=O)N2C(=O)C(c3cc(CN(C)C)ccc3OC)(N3CCCC3c3ccccn3)c3cc(Cl)ccc32)cc1` (stereo not shown) [Example 122, 5-Chloro-3-(5-dimethylaminomethyl-2-methoxyphenyl)-1-(4-methoxybenzenesulfonyl)-3-(2-pyridin-2-yl-pyrrolidin-1-yl)-1,3-dihydroindol-2-one]: 100 to 1000 nM.
To `CCCNCc1ccc(OC)c(C2(N3CCCC3c3ccccn3)C(=O)N(S(=O)(=O)c3ccc(OC)cc3)c3ccc(Cl)cc32)c1` (stereo not shown) [Example 123, 5-Chloro-1-(4-methoxybenzenesulfonyl)-3-(2-methoxy-5-propylaminomethylphenyl)-3-(2-pyridin-2-yl-pyrrolidin-1-yl)-1,3-dihydroindol-2-one] belongs 100 to 1000 nM; to `COc1ccc(S(=O)(=O)N2C(=O)C(c3cc(CN4CCN(C)CC4)ccc3OC)(N3CCCC3c3ccccn3)c3cc(Cl)ccc32)cc1` (stereo not shown) [Example 124, 5-Chloro-1-(4-methoxybenzenesulfonyl)-3-[2-methoxy-5-(4-methylpiperazin-1-ylmethyl)phenyl]-3-(2-pyridin-2-yl-pyrrolidin-1-yl)-1,3-dihydroindol-2-one], 10 to 100 nM; to `COc1ccc(S(=O)(=O)N2C(=O)C(c3cc(CN4CCNC(=O)C4)ccc3OC)(N3CCC[C@H]3c3ncco3)c3cc(Cl)ccc32)cc1` (stereo partly drawn) [Example 125, 5-Chloro-1-(4-methoxybenzenesulfonyl)-3-[2-methoxy-5-(3-oxopiperazin-1-ylmethyl)phenyl]-3-((S)-2-oxazol-2-yl-pyrrolidin-1-yl)-1,3-dihydroindol-2-one], 10 to 100 nM.
Next, `COc1ccc(S(=O)(=O)N2C(=O)C(c3cc(CN4CCNCC4)ccc3OC)(N3CCCC3c3ccccn3)c3cc(Cl)ccc32)cc1` (stereo not shown) [Example 126, 5-Chloro-1-(4-methoxybenzenesulfonyl)-3-(2-methoxy-5-piperazin-1-ylmethylphenyl)-3-(2-pyridin-2-yl-pyrrolidin-1-yl)-1,3-dihydroindol-2-one]: 100 to 1000 nM; `COc1ccc(S(=O)(=O)N2C(=O)C(c3ccc(CN4CCN(CCO)CC4)cc3OC)(N3CCC[C@H]3c3ncco3)c3cc(Cl)ccc32)cc1` (stereo partly drawn) [Example 127, 5-Chloro-3-{4-[4-(2-hydroxyethyl)piperazin-1-ylmethyl]-2-methoxyphenyl}-1-(4-methoxybenzenesulfonyl)-3-((S)-2-oxazol-2-yl-pyrrolidin-1-yl)-1,3-dihydroindol-2-one]: under 10 nM; `COc1ccc(S(=O)(=O)N2C(=O)C(N[C@@H](C)c3ncco3)(c3cc(CN4CCN(C)CC4)ccc3OC)c3cc(Cl)ccc32)cc1` (stereo partly drawn) [Example 128, 5-Chloro-1-(4-methoxybenzenesulfonyl)-3-[2-methoxy-5-(4-methylpiperazin-1-ylmethyl)phenyl]-3-((S)-1-oxazol-2-yl-ethylamino)-1,3-dihydroindol-2-one]: under 10 nM.

These data come from US8044079B2, “Substituted oxindole derivatives, medicaments containing said derivatives and use thereof” (Abbott GmbH & Co. KG, priority 2005, dated 2011).
